Experimental data published in a melting point compilation (Tetko et al.; mined from patent text by program, amines drawn as free bases though some values may be those of a salt).

Structure (SMILES) | melting point [°C]
CC(C)CC1(C(CCN2C(=O)c3ccccc3C2=O)C(=O)NO)CCN(Cc2ccccc2)C1=O (stereo unspecified) | 162 to 164
CSCC[C@@H]1C(=O)N(C)[C@H]([C@H](C)c2cccc3ccccc23)C(=O)N1C | 88 to 90
N#CC(=NOC(=O)OCc1ccccc1)c1ccccc1 | 73 to 75
O=C(Nc1ccncc1)c1cc2ccnc(Cl)c2[nH]1 | > 320
Nc1ncc2cc(-c3c(Cl)cccc3Br)c(N)nc2n1 | 264 to 280
CCCC1Nc2ccc(S(=O)(=O)N3CCCCC3)cc2S(=O)(=O)N1 (stereo unspecified) | 147 to 151
COC(=O)c1cc2c(cc1C#Cc1ccccc1)NC(=O)CC(c1cccc(C#N)c1)=N2 | > 250
N#Cc1nn(-c2c(Cl)cc(C(F)(F)F)cc2Cl)cc1C1(Cl)CC1C(F)F (stereo unspecified) | 124 to 125
Cc1cc2c3c(c1)c1c(n3C(c3ccccc3)CO2)CCCC1=O (stereo unspecified) | 171
CCCCCCCCCCCC1Nc2ccccc2-c2c([N+](=O)[O-])cnn21 (stereo unspecified) | 92 to 93
CCc1cc(C(C)=O)c(O)cc1OCCCCCNC(C)=O | 115 to 116
O=C(Nc1cccc2c(-n3ccnc3)c(CO)cnc12)c1c(Cl)cccc1Cl | 205 to 207
CCOc1cc(-c2cc(C(F)(F)F)n3ncc(C(=O)Nc4nc(C)c(S(=O)(=O)NC(C)(CO)CO)s4)c3n2)ccc1C(F)(F)F | 220
CC1(C)Oc2ccc(C#N)cc2[C@@H](NC2=C(CO)C(=O)CC2)[C@@H]1O (relative stereo) | 218 to 220
CCCc1nc2c(N)nc3cc(OCc4cccc([N+](=O)[O-])c4)ccc3c2n1CC(C)C | 175 to 176
COc1cccc(/C=C/C2=CCN(Cc3c[nH]c4ncccc34)CC2)c1 | 186 to 188
Cc1cc(C(C#N)=CN(C)C)ccn1 | 126
CCOC=C(C#N)C(=O)c1cc(F)c(F)c(F)c1F | 99 to 101
CC(C)(C)C(NC(=O)CCc1cccnc1)Nc1c(Nc2cccnc2Cl)c(=O)c1=O (stereo unspecified) | 179 to 180
CCC1CCC2C3CC=C4CCCCC4(C)C3CCC12C (stereo unspecified) | 104 to 106
C#CCNc1onc(-c2ccccc2)c1Cl | 83 to 84

Structure (SMILES) | melting point [°C]
CS(=O)c1ccc(-c2nn(CC3CC3)c(=O)cc2-c2ccc(F)cc2)cc1 (stereo unspecified) | 133 to 134
CCCCSCC(=O)N(Cc1cccnc1)C(C)(C)C | 55 to 56
CNC(=O)Nc1ccc(CCN2CCC(Nc3nc4ccccc4n3Cc3ccc(F)cc3)CC2)cc1 | 300
COc1ccc(-n2nc(S)nc2-c2ccccc2)cc1 | 260
CCc1c2n(c3ccccc13)C(=O)C(Cc1ncn(C(c3ccccc3)(c3ccccc3)c3ccccc3)c1C)CC2 (stereo unspecified) | 78 to 82
COc1nc(NC(=O)NS(=O)(=O)c2ccccc2OC(F)F)nc(N(C)C)n1 | 171 to 172
CC(C(N)=O)C1CC(c2ccc(N3CCSCC3)c(F)c2)=NO1 (stereo unspecified) | 188 to 189
COc1ccc(CCCC(=O)O)c(Cl)c1Cl | 120 to 123
O=C(NC(c1ccccc1)c1cc2ccncc2[nH]1)c1ccccn1 (stereo unspecified) | 102 to 110
CCCCCCCCOC(=O)COc1cc(F)ccc1C(=S)NCc1cccc([N+](=O)[O-])c1 | 69 to 72
CN1CCC2(CC1)C(=O)N(C)c1ccc(Cl)cc1C(c1ccccc1)N2C (stereo unspecified) | 80 to 85
COc1ccc(-c2cc3cc(F)c(F)cc3[nH]2)cc1NCc1ccc(C#N)cc1 | 158 to 159
Cc1cccc(NC(=O)NC2CN(C(=O)C(C)(C)C)c3ccccc3N(CC(=O)N(C)C)C2=O)c1 (stereo unspecified) | 252 to 254
CCC(CC)(COc1ccc2ncnn2n1)CS(N)(=O)=O | 194 to 197
CCOC(=O)C(NS(=O)(=O)c1ccc(C)cc1)C1CCOC1C#N (stereo unspecified) | 105 to 107
CCn1c(=O)c2[nH]c(/C=C/c3cc4c(cc3Br)OCO4)nc2n(CC)c1=O | > 270
CC(C)c1ccc(Nc2cccc3c2C(=O)N(C2CCC(=O)NC2=O)C3=O)cc1 (stereo unspecified) | 138 to 140
COc1cc(Cl)ccc1C(=O)NC1CN(c2ccc(F)cc2)CCn2c1nc(-c1ccncn1)cc2=O (racemic) | 207 to 209
O=c1c2n[nH]c3ccc(Cl)cc3c-2nn1-c1ccccc1 | > 280
CC(C)(C)c1cc(-c2nnc(C(N)=O)s2)cc(C(C)(C)C)c1O | 200 to 201
CC(=O)SCC(CC(C)C)C(=O)Nc1cccc(C(=O)O)c1C (stereo unspecified) | 154 to 156

The next lines start with the values.

melting point [°C] | Structure (SMILES)
118 to 121 | CCCCCCCCCCCCCCOc1ccccc1NS(=O)(=O)c1ccc2c(N=Nc3ccc(OC)cc3)c(O)ccc2c1
> 360 | O=[N+]([O-])c1cc2nc(O)c(O)nc2c2scnc12
164 to 165 | CC(C)(NCc1ncc[nH]1)c1ccc(Cl)cc1
150 | FC(F)(F)c1cccc(N(c2ccccc2)c2ccc(-c3ccc(N(c4ccccc4)c4cccc(C(F)(F)F)c4)cc3)cc2)c1
118 to 120 | O=C(CN1CCC(n2c(=O)[nH]c3ccccc32)CC1)c1ccc(OCc2ccccc2)c(OCc2ccccc2)c1
146 | O=C(O)c1cccc(Oc2ccc(C(F)(F)F)cn2)c1
138 to 140 | CC(C)(C)c1cc(OCc2n[nH]c(=O)o2)cc(C(C)(C)C)c1O
72 to 75 | CC1CCN(C(=O)Oc2ccc(Oc3ccc(Cl)cc3)cc2)CC1
181 to 183 | FC(F)(F)c1cc(Cl)c(Oc2cc(-c3ccc(Cl)cc3)[nH]n2)c(Cl)c1
114 to 115 | CC1(C)OCC(CONC(=O)c2ccc(F)c(F)c2Nc2ccc(I)cc2F)O1 (stereo unspecified)
224 to 225 | COc1cc(-c2cnc3[nH]cc(C(=O)NCC(C)(C)CO)c3n2)cc(OC)c1OC
136 to 138 | COc1ccc(Cn2ncc3c4c(cnc32)CN(S(=O)(=O)c2ccccc2)CC4)cc1
218 to 220 | CC1Cc2c(n(-c3ccc(Cl)c(Cl)c3)c3ncccc3c2=O)O1 (stereo unspecified)
163 to 164 | COc1ccc(-c2nc(S(=O)(=O)C(F)(F)C(F)F)[nH]c2-c2cccs2)cc1
119 to 121 | COc1ccc(C(=O)C#CC(=O)O)c(OC)c1OC
166 to 170 | OC[C@H]1O[C@@H](n2cnc3c(N[C@@H]4CCN(c5ccc(C(F)(F)F)cn5)C4)ncnc32)[C@H](O)[C@@H]1O
235 to 236 | O=[N+]([O-])c1cn2c(n1)O[C@@H](COc1ccc(N3CCN(S(=O)(=O)C(F)(F)C(F)(F)C(F)(F)C(F)(F)F)CC3)cc1)CC2
115 to 117 | CN(CCCC(=O)Nc1ccc2[nH]ncc2c1)Cc1ccccc1
197 to 198 | CC(Cl)(Cl)C(NC(=O)c1ccc(F)cc1)NC(=NC#N)Nc1ccc(Cl)nc1 (stereo unspecified)
223 to 224 | Cc1nc2c(O)c(CCC(=O)c3ccccc3)c(C(=O)N(C)C)cc2n1C
206 to 208 | COCCn1nc2c(N)nc3ccccc3c2c1CC(C)(C)C#N
117 to 119 | CCCCCCCCCCNC(=O)c1ccc(N)cc1
151 to 152 | CCOC(=O)c1cc(SCc2ccccc2)c(Sc2ccccc2)c(S(N)(=O)=O)c1
158 to 159 | CC(C)CCNC(Nc1cc(C(F)(F)F)cc(C(F)(F)F)c1)=C(C#N)C#N
95 to 97 | COCn1c(-c2nccs2)cc2cccc(NS(=O)(=O)c3cccs3)c21
59 to 61 | COc1ccc2c(c1)CCC(CC(=O)N1CCCCC1)C2 (stereo unspecified)
144 to 146 | Cc1cc(O)c(S(=O)Cc2ccc(Cl)cc2Cl)c(=O)o1 (stereo unspecified)

melting point [°C] | Structure (SMILES)
168 to 170 | Nc1cnn2cnc3ccccc3c12
196 to 199 | Cc1cc(N2CCC(=O)CC2)nn2cnnc12
165 to 166 | O=S1(=O)c2ccccc2Oc2cc(OCC(F)(F)F)ccc21
100 | CCOC(=O)C1=C(COCC#CC(=O)O)NC(C)=C(C(=O)OC)C1c1cccc(Cl)c1Cl (stereo unspecified)
75 | CCOC(=O)C(C)Oc1cc(C(=O)O)c(O)c2ccccc12 (stereo unspecified)
134 to 136 | Cc1cc2c(-c3cccc(C(F)(F)F)c3)nc(-c3ccc(C(F)(F)F)cc3)nc2s1
164 | O=C1NC(=O)C(=Cc2ccc(OC[C@@H]3CCCN3c3ccccn3)cc2)S1
163 to 164 | O=C(CCc1cnoc1-c1ccccc1)Nc1cnccn1
302 to 304 | CC(=O)Nc1nc2c(Oc3cc(-c4ccc(C(F)(F)F)cc4O)ncn3)cccc2s1
213 | NC1=C(c2ccc(O)cc2)C(=O)c2ccc(O)cc21
195 | CSCCC(NC(=O)c1ccc(COc2cccnc2)cc1Oc1ccccc1)C(=O)O (stereo unspecified)
180 to 182 | Cc1cc(O)c(S(=O)(=O)Cc2ccc(F)cc2)c(=O)o1
62 to 62.5 | CCOC(=O)C(OCc1ccc(-c2ccc(Cl)cc2)cc1)(C(F)(F)F)C(F)(F)F
126 to 127 | CCOC(=O)c1cc2cc(OCCCOC)cc(NS(=O)(=O)c3ccccn3)c2[nH]1
199 to 201 | Cc1ccc(-c2ccc3c(c2)C=C(C(=O)Nc2ccc(CN4CCC(Cc5ccccc5)CC4)cc2)CC3)cc1
136 to 137 | CN(C=C(C#N)C#N)c1ccc(Cl)cn1
146 to 147 | CC(C)c1nn(-c2ccc(C(F)(F)F)cn2)cc1CCCOc1c(Br)cccc1CC(=O)O
106 | COP(=O)(Cc1ccc(CP(=O)(OC)OC)cc1)OC
164 to 166 | CC(=O)NCCC1=C(C(C)C)Cc2cnc3c(c21)CCO3
184 to 185 | CCOc1c(C)cnc(CSc2nc3cc4c(cc3[nH]2)OCO4)c1C
168 to 170 | CCOC(=O)C(C)(C)n1c(=O)[nH]c2cccc(F)c2c1=O
142 | O=C(Nc1ccc2[nH]c(C(F)(F)F)nc2c1)C(=O)N1CCC(Cc2ccccc2)CC1
82 to 83 | CN1CCC(=C2c3ccccc3Oc3ccc(C(F)(F)F)cc32)CC1
155 to 158 | Cc1ccc(S(N)(=O)=O)cc1C(C)O (stereo unspecified)
233 | CNc1nc(-c2ccc(C(F)(F)F)cc2)c2cc(C)sc2n1
> 250 | O=Cc1c[nH]c2c1ccc1c3cccc(Br)c3[nH]c12
158 to 160 | CC(=O)N(C(=O)C1=NN(c2ccc(Cl)cc2)C(c2ccc(Cl)cc2)C1)c1ccc(C(F)(F)F)cc1 (stereo unspecified)
